{
  "source": "patent US4707481A",
  "about": "“Pyridazinones, their preparation and use, and bronchospasmolytic medicaments containing pyridazinones” (BYK Gulden Lomberg Chemische Fabrik GmbH, priority 1983, dated 1987)",
  "key": {"[1]": {"test_system": "chain of tracheal rings of guinea pigs", "test": "relaxing action on chain of tracheal rings in vitro (bronchospasmolytic action)", "design": "species or system guinea pig", "conditions": "for EC50: Cavia porcellus, Column A, negative logarithm of EC50 in mol/l, 50% of maximum relaxation by (-)isoprenaline, read-out: -lg[EC50] trachea (converted); for [EC40 pot.] left atrium / [EC50] trachea: Column C, measure of organ-selective activity; for [EC50] theophylline / [EC50] substance: Column D, trachea", "quoted_text": "The relaxing action of the 6-aryl-3[2H]pyridazinones I has been tested in vitro on a chain of tracheal rings (Tr.) of guinea pigs. […] The quotient of [EC40pot. ]left atrium and [ED50 ]trachea serves as a measure of the organ-selective activity.\nThe bronchospasmolytic action of the compounds on the chain of tracheal rings of the guinea pig was tested in vitro:\nFour parallel chains of tracheal rings, each consisting of 6 individual rings, of guinea pigs(.male. and .female., 430-600 g) in an organ bath [5 ml, Krebs-Henseleit solution with added phentolamine (10^-5 mol/l), 37° C., initial tension of the organs 2 g, gassing with carbogen] develop a stable, spontaneous tonic contraction after about 20 to 30 minutes. […] Over a period of 20 to 30 minutes, a complete dose/action curve of the test substance is thus obtained. The particular relaxation is expressed as a percentage fraction of the maximum relaxation which can be achieved by administration of (-)isoprenaline (10^-6 mol/1). The concentration of the test substance which causes 50% of the maximum relaxation which can be achieved, expressed by the negative logarithm of the EC50 mol/l: -lg[EC50 ]is a measure of the bronchodilator activity."}, "[2]": {"test_system": "electrically stimulated left atrium of rats", "test": "positive inotropic action on electrically stimulated left atrium in vitro", "design": "species or system rat", "conditions": "for EC40: Rattus norvegicus, Column B, negative logarithm of EC40pot in mol/l, 40% increase in contraction force, read-out: -lg[EC40 pot.] left atrium (converted); for [EC40 pot.] theophylline / [EC40 pot.] substance: Column E, left atrium", "quoted_text": "The positive inotropic action was tested in vitro on the electrically stimulated left atrium of rats (l.a.).\nThe positive inotropic action of the compounds was tested in vitro on the electrically stimulated left atrium of rats.\nIsometric contractions (HSE force sensor K-30; Watanabe recorder, Linear Corder Mark 5) of isolated, left atria from rats (.male., 250-300 g) in an organ bath (10 ml, Tyrode nutrient solution, 31° C., gassing with carbogen, initial tension of the organs 0.25 g) under electrical stimulation (HSE stimulator, 7 V, 3 ms, 2 Hz) were recorded. […] The particular increase in the contraction force is expressed in % of the starting value before administration of the substance. The concentration of the test substance which potentiates the contraction force of the atrium by 40% compared with the starting value [EC40pot. mol/l], expressed by the negative logarithm of the [EC40pot mol/l]: -lg[EC40pot ] serves as a measure of the cardiotonic activity."}, "[3]": {"test": "toxicity studies, mouse p.o.", "conditions": "in vivo, po; Column F; mouse p.o.; 7 days observation; read-out: Approximate LD50", "experimental": "The toxicity studies are carried out on female NMRI mice (body weight 23-30 g). The animals (5 animals per dose) receive food and water ad libitum. Various doses of the substances are administered once as a suspension in methocel via a gavage. The period of observation lasts 7 days. The tolerated dose (TD), that is to say the highest dose at which as yet none of the animals die, is determined by observation. The average lethal dose (LD50), that is to say the dose at which 50% of the animals die, is determined from the dose/action curve by means of linear regression."}, "[4]": {"test_system": "guinea pig hearts isolated and perfused by the Langendorff method", "test": "left-ventricular pressure and heart rate in isolated perfused Langendorff hearts", "conditions": "for Emax: Cavia porcellus", "description": "After the animals have been sacrificed by a blow to the neck and exsanguination through the carotid arteries, the thoracic cavity is opened, and the aorta is exposed and looped up with a thread. A cannula, which is attached by tubing to the apparatus from which the nutrient solution slowly drops, is introduced in the direction of the heart and the heart is, quickly after removal from the thorax, connected to the perfusion apparatus. A balloon probe, connected to a Statham pressure sensor, is advanced through a cut through the left atrium into the left ventricle, and is provided with an initial pressure of 40 mm Hg. […] The nutrient solution flowing freely from the coronary sinus into the right atrium is measured with a flow […]) and, together with the change in the left-ventricular pressure and the heart rate determined from this, is recorded on a Watanabe recorder. The substances are administered in a volume of 0.1 ml of nutrient solution, in the dosage indicated in Tab."}},
  "note": "Read-outs that look alike come from different tables or passages of the source.",
  "data": [
    {"smiles": "COc1cc(-c2ccc(=O)[nH]n2)ccc1OC(C)C", "note": "[compound 1]", "values": [
      {"measurement": "EC50", "setting": "[1]", "result": 1910, "unit": "nM"},
      {"measurement": "EC40", "setting": "[2]", "result": 22.4, "unit": "µM"},
      {"measurement": "LD50 at 168 h", "setting": "[3]", "result": 270, "unit": "mg/kg"}
    ]},
    {"smiles": "CCCOc1ccc(-c2ccc(=O)[nH]n2)cc1OC", "note": "[compound 2]", "values": [
      {"measurement": "Emax", "setting": "[4]; after 300 nMol, read-out: Emax left-ventricular pressure", "result": 59, "unit": "%"},
      {"measurement": "Emax", "setting": "[4]; at Emax, 300 nMol, read-out: Percentage increase in heart rate at Emax", "result": 13, "unit": "%"},
      {"measurement": "EC50", "setting": "[1]", "result": 417, "unit": "nM"},
      {"measurement": "EC40", "setting": "[2]", "result": 7.24, "unit": "µM"},
      {"measurement": "LD50 at 168 h", "setting": "[3]", "result": 530, "unit": "mg/kg"}
    ]},
    {"smiles": "CCOc1cc(-c2ccc(=O)[nH]n2)ccc1OC", "note": "[compound 8]", "values": [
      {"measurement": "EC50", "setting": "[1]", "result": 339, "unit": "nM"},
      {"measurement": "[EC40 pot.] left atrium / [EC50] trachea", "setting": "[1]", "result": 3.9},
      {"measurement": "[EC50] theophylline / [EC50] substance", "setting": "[1]", "result": 398},
      {"measurement": "[EC40 pot.] theophylline / [EC40 pot.] substance", "setting": "[2]", "result": 316},
      {"measurement": "EC40", "setting": "[2]", "result": 1.32, "unit": "µM"},
      {"measurement": "LD50 at 168 h", "setting": "[3]", "result": 550, "unit": "mg/kg"}
    ]},
    {"smiles": "C=CCOc1cc(-c2ccc(=O)[nH]n2)ccc1OC", "note": "[compound 9]", "values": [
      {"measurement": "Emax", "setting": "[4]; after 500 nMol, read-out: Emax left-ventricular pressure", "result": 53, "unit": "%"},
      {"measurement": "Emax", "setting": "[4]; at Emax, 500 nMol, read-out: Percentage increase in heart rate at Emax", "result": 21, "unit": "%"},
      {"measurement": "Percentage increase in heart rate at EC20", "setting": "[4]; at EC20", "result": 7, "unit": "%"},
      {"measurement": "EC20 left-ventricular pressure", "setting": "[4]; dose which leads to a 20% increase in left ventricular pressure", "result": 50, "unit": "nmol"},
      {"measurement": "EC50", "setting": "[1]", "result": 537, "unit": "nM"},
      {"measurement": "[EC40 pot.] left atrium / [EC50] trachea", "setting": "[1]", "result": 2.3},
      {"measurement": "[EC50] theophylline / [EC50] substance", "setting": "[1]", "result": 251},
      {"measurement": "[EC40 pot.] theophylline / [EC40 pot.] substance", "setting": "[2]", "result": 331},
      {"measurement": "EC40", "setting": "[2]", "result": 1.26, "unit": "µM"},
      {"measurement": "LD50 at 168 h", "setting": "[3]", "result": 610, "unit": "mg/kg"}
    ]},
    {"smiles": "COc1ccc(-c2ccc(=O)[nH]n2)cc1OCCC(C)C", "note": "[compound 12]", "values": [
      {"measurement": "EC50", "setting": "[1]", "result": 501, "unit": "nM"},
      {"measurement": "[EC40 pot.] left atrium / [EC50] trachea", "setting": "[1]", "result": 2000},
      {"measurement": "[EC50] theophylline / [EC50] substance", "setting": "[1]", "result": 269},
      {"measurement": "EC40", "setting": "[2]", "result": "> 1000", "unit": "µM"},
      {"measurement": "LD50 at 168 h", "setting": "[3]", "result": 960, "unit": "mg/kg"}
    ]}
  ]
}
